Experimental data as given in patent publication US20050059735A1, “Cyclic amino acid derivatives useful as pharmaceutical agents” (priority 2000, published 2005).
Where two headings read alike, the source gives them in different places.

Legend:
[1] = in vivo; settings: rat, po
[2] = rat, in vivo, po, 5 mg/kg

Row | SMILES | half-life [1] [h] | half-life [2]
1 | NCC1(CC(=O)O)CCCCC1 [gabapentin, 1-(aminomethyl)-cyclohexylacetic acid] | 1.2 | 
2 | O=C(CC1(CNC(=O)c2ccccc2)CCCCC1)OCc1ccccc1 [Example 10, [1-(Benzoylamino-methyl)-cyclohexyl]-acetic acid benzyl ester] |  | about 6 hrs
